The subject of data set [1] is RKO or SJSA-1 cancer cells. Nature of the data set: Cell viability assays, RKO or SJSA-1 cancer cells. It counts as cell-based.
In the next data set the test system is SJSA-1 cells. Nature of the data set: CellTiter-Glo viability, SJSA-1. It counts as cell-based, human. To be noted: SJSA-1 (HDM2++/HDMX−), 24 h. How it is done:
(§1) All viability assays were performed in at least triplicate.

Data set [2] concerns SJSA-X cells. Nature of the data set: CellTiter-Glo viability, SJSA-X. It is filed as cell-based, human. To be noted: SJSA-X (HDM2++/HDMX++), 24 h. The protocol: as §1
Data set [3] concerns JEG-3 cells. The data set is described as follows: CellTiter-Glo viability, JEG-3. It is filed as cell-based, human. The conditions noted are these: JEG-3 (HDM2−/HDMX++), 24 h. The protocol:
as §1

Another data set deals with MCF-7 cells. Nature of the data set: CellTiter-Glo viability, MCF-7. It is filed as cell-based, human. To be noted: MCF-7 (HDM2+/HDMX+), 24 h. The protocol:
as §1

The subject of another data set is HCT116 cells. Nature of the data set: CellTiter-Glo viability, HCT116. It is filed as cell-based, human. The conditions noted are these: HCT116 (HDM2+/HDMX+), 24 h. How it is done:
as §1

The subject of data set [4] is HCT116 cells deficient in p53. Nature of the data set: CellTiter-Glo viability, HCT116 deficient in p53. It counts as cell-based, human. To be noted: HCT116 with genetic deletion of p53, 24 h. The protocol: (§2) Finally, WS1 normal human fibroblasts were tested to evaluate relative toxicity in tumor versus non-transformed cells.
(§3) Cultured cells were maintained in the appropriate media (SJSA-1, SJSA-X, SJSA-DD, A431 (DMEM); JEG-3, MCF-7, WS1 (EMEM); HCT116 (McCoy's 5A)) supplemented with fetal calf serum and penicillin/streptomycin. […] Viability was assayed by addition of CellTiter-Glo™ chemiluminescence reagent according to the manufacturer's protocol (Promega). Luminescence was measured using a Spectramax M5 microplate reader (Molecular Devices). […] All viability assays were performed in at least triplicate.

In a further data set the test system is SJSA-DD cells. Nature of the data set: CellTiter-Glo viability, SJSA-DD. The conditions noted are these: SJSA-1 overexpressing dominant negative p53 (SJSA-DD), 24 h. It is filed as cell-based, human. The protocol: as §2, §3
Data set [5] deals with bearing the R273H p53 mutation. The data set is described as follows: CellTiter-Glo viability, A431. To be noted: A431, inactivating p53 point mutation, 24 h. It is filed as cell-based, human. How it is done:
as §2, §3

Data set [6] deals with p53. The data set is described as follows: p53 western of JEG-3 cellular extracts (input). It counts as cell-based, human. To be noted: JEG-3, 20 μM, 6 hours. The protocol: ; Bethyl Laboratories) and western analysis of electrophoresed protein was conducted using p53 (DO-1; EMD Chemicals or FL-393; Santa Cruz Biotechnology), HDMX (MDMX-82; Abcam), and HAUSP (anti-USP7, Bethyl Labs) antibodies, and Western Lightning chemiluminescence reagent (PerkinElmer). […]

Data set [7] deals with JEG-3 cells. Nature of the data set: Caspase-3/7 activation in JEG-3 cells. To be noted: JEG-3, 0.3-10 μM, 12 h. It is filed as cell-based, human. The protocol:
Apoptosis studies were performed as follows.

Another data set deals with JEG-3 xenografts. Nature of the data set: JEG-3 murine xenograft tumor growth. The conditions noted are these: 10 mg/kg i.v. once daily for 4 days.
The next data set has as its system HDM2, p21, and MIC-1. Nature of the data set: qPCR of p53 targets in excised JEG-3 tumors. The conditions noted are these: tumors excised day 5.
Data set [8] deals with p53 transcriptional targets HDM2, p21, MIC-1. Nature of the data set: qPCR of p53 transcriptional targets in JEG-3 cells. The conditions noted are these: JEG-3, 20 μM, 6 h.
Description: qPCR studies were performed as follows. […] Total RNA was reverse transcribed to cDNA using Superscript III reverse transcriptase (Invitrogen). The derived cDNA was employed as the substrate to measure relative transcript levels by qRT-PCR on a PRISM 7700 system using SYBR Green PCR Master Mix (Applied Biosystems). Primers specific for HDM2, p21, MIC-1, and the UBB control were employed. Triplicate reactions were prepared in 96-well optical PCR plates.
The next data set concerns the target T1, HDM2 (Homo sapiens, UniProt Q00987).
T1 construct: endogenous in cells; host or cells: SJSA-X (derivative of SJSA-1 osteosarcoma)
Nature of the data set: Anti-FITC pull down in SJSA-X cells, HDM2 western. It is filed as cell-based. The conditions noted are these: 15 μM, 12 hours.

A further data set addresses T2, HDMX (Homo sapiens, UniProt O15151).
T2 construct: expressed in transfected cells; host or cells: SJSA-X (SJSA-1 engineered to overexpress HDMX)
T2 sequence (O15151 1-490): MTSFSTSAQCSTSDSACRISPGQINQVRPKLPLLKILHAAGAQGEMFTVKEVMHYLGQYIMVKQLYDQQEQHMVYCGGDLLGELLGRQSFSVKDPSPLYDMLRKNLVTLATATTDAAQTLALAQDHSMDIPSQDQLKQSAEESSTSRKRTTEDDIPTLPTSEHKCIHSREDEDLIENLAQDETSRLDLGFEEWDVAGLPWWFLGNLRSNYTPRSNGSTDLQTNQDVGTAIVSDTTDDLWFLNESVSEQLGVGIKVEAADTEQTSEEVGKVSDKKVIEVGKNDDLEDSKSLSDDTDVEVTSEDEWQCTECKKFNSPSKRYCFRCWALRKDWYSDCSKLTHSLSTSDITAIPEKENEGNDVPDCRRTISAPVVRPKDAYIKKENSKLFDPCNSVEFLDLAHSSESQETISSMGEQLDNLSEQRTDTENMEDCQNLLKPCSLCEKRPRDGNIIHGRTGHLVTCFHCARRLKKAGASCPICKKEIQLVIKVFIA
The data set is described as follows: Anti-FITC pull down in SJSA-X cells, HDMX western. It is filed as cell-based. To be noted: 15 μM, 12 hours.

Data set [9] deals with SJSA-X cells. The data set is described as follows: FITC-peptide detection in SJSA-X cellular lysates (cell penetration). The conditions noted are these: 12 hours. The protocol: Cells were then lysed and anti-FITC pull down was performed, followed by HDM2 and HDMX western analyses.
Another data set can be described thus: Proteolytic stability. It counts as in vitro ADME. The source says:
The amide bond of the peptide backbone is susceptible to hydrolysis by proteases, thereby rendering peptidic compounds vulnerable to rapid degradation in vivo. Peptide helix formation, however, typically buries the amide backbone and therefore may shield it from proteolytic cleavage. The peptidomimetic macrocycles of the present invention may be subjected to in vitro trypsin proteolysis to assess for any change in degradation rate compared to a corresponding uncrosslinked polypeptide. For example, the peptidomimetic macrocycle and a corresponding uncrosslinked polypeptide are incubated with trypsin agarose and the reactions quenched at various time points by centrifugation and subsequent HPLC injection to quantitate the residual substrate by ultraviolet absorption at 280 nm. Briefly, the peptidomimetic macrocycle and peptidomimetic precursor (5 mcg) are incubated with trypsin agarose (Pierce) (S/E~125) for 0, 10, 20, 90, and 180 minutes. Reactions are quenched by tabletop centrifugation at high speed; remaining substrate in the isolated supernatant is quantified by HPLC-based peak detection at 280 nm.

The next data set deals with T3, full-length HDMX (Homo sapiens, UniProt O15151).
T3 construct: plasmid encoding full-length HDMX with N-terminal thioredoxin, S, and hexahistidine tags; thioredoxin (N, cleaved yes); S-tag (N, cleaved yes); hexahistidine (N, cleaved yes); made in house; host or cells: Escherichia coli BL21 (DE3) pLysS, pET32-LIC vector
T3 sequence (O15151 1-490): T2 sequence (O15151 1-490)
The data set is described as follows: Fluorescence polarization direct binding to HDMX. To be noted: FITC-labeled peptides, same dose ranges. How it is done:
Fluorescence polarization was then measured at equilibrium on a SpectraMax M5 microplate reader (Molecular Devices).

The subject of data set [10] is WS1 normal human fibroblasts. Nature of the data set: CellTiter-Glo viability, WS1 fibroblasts. How it is done: as §2, §3
Data set [11] relates to p53. Nature of the data set: p53 western in MCF-7 cells. It is filed as cell-based, human. To be noted: MCF-7, 20 μM. How it is done:
FIG. 8 is an image of an immunoblot showing that pharmacologic induction of p53-HDMX complexes sensitizes Nutlin-3-resistant cancer cells to HDMX inhibition. […]. Cells were exposed to MG-132 at 10 μM for 6 hours to induce HDMX-p53 complex formation. Cellular extracts (input-left side immunoblot) and anti-HDMX immunoprecipitates (IP:HDMX-right side immunoblot) were analyzed by SDS-PAGE and Western blotting. Levels of p53 and HAUSP are shown.

“Also recorded” adds a separate entry of the source. Where two headings read alike, the source gives them in different places. Positions of bridges follow the written chain, without caps; N, C: chain ends. Non-standard residues stand in square brackets, D forms with d. No end group written: not given here. R8 = C=CCCCCCC[C@@](C)(N)C(=O)O; S5 = C=CCCC[C@](C)(N)C(=O)O

T1 sequence (Q00987 whole entry): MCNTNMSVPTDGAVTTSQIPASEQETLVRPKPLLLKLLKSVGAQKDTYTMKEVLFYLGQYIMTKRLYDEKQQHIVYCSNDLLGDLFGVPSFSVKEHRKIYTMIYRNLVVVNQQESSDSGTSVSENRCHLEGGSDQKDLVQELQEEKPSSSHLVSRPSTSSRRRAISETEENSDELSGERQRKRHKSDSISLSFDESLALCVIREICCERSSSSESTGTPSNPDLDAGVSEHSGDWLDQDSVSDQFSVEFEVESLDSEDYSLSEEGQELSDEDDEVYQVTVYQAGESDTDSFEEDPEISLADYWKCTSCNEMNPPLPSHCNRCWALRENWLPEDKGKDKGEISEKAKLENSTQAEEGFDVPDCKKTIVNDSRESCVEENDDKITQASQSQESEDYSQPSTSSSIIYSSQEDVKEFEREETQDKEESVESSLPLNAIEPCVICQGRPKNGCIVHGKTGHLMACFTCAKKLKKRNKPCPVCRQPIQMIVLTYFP

For “SAH-p53-8: i, i+7 hydrocarbon-stapled p53 transactivation domain peptide (SEQ ID NO: 10), S20 and P27 replaced with olefinic residues”, the cell viability entry in data set [1] is given as “promoted cell death”; in the data set with SJSA-1 cells it was “dose-dependent inhibition of cell viability”; with SJSA-X cells [2], “dose-dependent inhibition of cell viability; also recorded: restoring susceptibility”; with JEG-3 cells [3], “dose-dependent inhibition of cell viability; also recorded: most sensitive”; in the data set on MCF-7 cells, “dose-dependent inhibition of cell viability”; in the data set with HCT116 cells it was “dose-dependent inhibition of cell viability”. The cell viability entry was “completely insensitive” in data set [4], “completely insensitive” with SJSA-DD cells and “similarly unaffected” in data set [5]. Further, in the data set on p53 [6], the p53 levels entry is given as “increase in p53 levels”. The caspase-3/7 activation entry in the data set on JEG-3 cells [7] is listed as “dose-responsive activation of caspase-3/7”. For the same compound, the tumor growth entry with JEG-3 xenografts is “significantly suppressed tumor growth”. Moreover, the “reduction in tumor burden compared to vehicle and Nutlin-3” value in the data set with JEG-3 xenografts (5-day evaluation) is listed as 37-46%. Further, the “transcriptional activation of HDM2, p21, and MIC-1 in tumors” value in the data set with HDM2, p21, and MIC-1 is on record as “statistically significant transcriptional activation”. In data set [8], the “upregulation of p53 transcriptional targets (mRNA) compared to vehicle” value is 5-14 fold.
On to `CC(C)C[C@@H]1NC(=O)[C@H](CCCNC(=N)N)NC(=O)[C@H](Cc2c[nH]c3ccccc23)NC(=O)[C@H](CC(C)C)NC(=O)[C@H](CC(N)=O)NC(=O)[C@](C)(NC(=O)[C@H](Cc2ccccc2)NC(=O)[C@@H](NC(=O)[C@H](CCC(N)=O)NC(=O)[C@H](CCC(N)=O)NC(=O)[C@H](CO)NC(=O)[C@H](CCC(N)=O)NC(=O)CCNC(=S)Nc2ccc3c(c2)C(=O)OC32c3ccc(O)cc3Oc3cc(O)ccc32)[C@@H](C)O)CCCCCCC=CCCC[C@@](C)(C(=O)N[C@@H](CCC(N)=O)C(=O)N[C@@H](CC(N)=O)C(N)=O)NC(=O)[C@H](CC(C)C)NC1=O` [FITC-SAH-p53-8], for which the “co-immunoprecipitation of native HDM2” value on HDM2 was “specifically co-immunoprecipitated”. Moreover, the “co-immunoprecipitation of native HDMX” value at HDMX is recorded as “specifically co-immunoprecipitated”. Moreover, the “penetration of intact SJSA-X cells” value with SJSA-X cells [9] was “efficiently penetrated intact SJSA-X cells”.
With `CC(=O)N[C@@H](CC(C)C)C(=O)N[C@@H](CO)C(=O)N[C@@H](CCC(N)=O)C(=O)N[C@@H](CCC(=O)O)C(=O)N[C@H](C(=O)N[C@@H](Cc1ccccc1)C(=O)N[C@]1(C)CCCCCCC=CCCC[C@@](C)(C(=O)N[C@@H](CCC(=O)O)C(=O)N[C@@H](CC(N)=O)C(N)=O)NC(=O)[C@H](CC(C)C)NC(=O)[C@H](CC(C)C)NC(=O)[C@H](CCCCN)NC(=O)[C@H](Cc2c[nH]c3ccccc23)NC(=O)[C@H](CC(C)C)NC(=O)[C@H](CC(=O)O)NC1=O)[C@@H](C)O` [SAH-p53-4], in “Proteolytic stability”, the proteolytic stability entry is “improved proteolytic stability”.
Consider “SAH-p53-8F19A: negative control peptide: SAH-p53-8 with F19 substituted by alanine (SEQ ID NO: 13) (QSQQTA[R8]NLWRLL[S5]QN; staple 7-14)”, for which the “interaction with HDMX” value with full-length HDMX is listed as “no interaction”. The cell viability entry (with SJSA-1 cells; in the data set on SJSA-X cells [2]; in the data set on JEG-3 cells [3]; in the data set on MCF-7 cells; in the data set with HCT116 cells; in data set [4]) was “inactive” each time. Also, the cell viability entry (in the data set with SJSA-DD cells; in data set [5]) was “inactive” each time. Also, the “viability of normal human fibroblasts” value in [10] was “inactive”.
For `COc1ccc(C2=N[C@@H](c3ccc(Cl)cc3)[C@@H](c3ccc(Cl)cc3)N2C(=O)N2CCNC(=O)C2)c(OC(C)C)c1` [Nutlin-3, reference compound], the cell viability entry in the data set on SJSA-1 cells is given as “very sensitive”; in the data set with SJSA-X cells [2], “little to no response; also recorded: ineffective as a single agent”; in the data set on JEG-3 cells [3], “little to no response; also recorded: most resistant”; with MCF-7 cells it was “modestly sensitive”; with HCT116 cells, “modestly sensitive”; with SJSA-DD cells, “completely insensitive”. In addition, the “viability of normal human fibroblasts” value in [10] (WS1, 24 h) is “no impact”. Moreover, the p53 levels result was “increase in p53 levels” in the data set on p53 [6] and “elevate p53 levels” in the data set with p53 [11]. Moreover, the caspase-3/7 activation entry in the data set on JEG-3 cells [7] is reported as “little effect”. Also, the tumor growth result in the data set on JEG-3 xenografts is reported as “not affected”. Further, in data set [8], the “upregulation of p53 transcriptional targets (mRNA) compared to vehicle” value is listed as 1.5-4 fold.

These data come from US10822374B2, “Cancer therapies and diagnostics” (Dana-Farber Cancer Institute, Inc., priority 2010, dated 2020).
